# Patent publication US12527886B2, “Radiopharmaceuticals and composition for thrombus imaging” (THE ASAN FOUNDATION, priority 2020, dated 2026)
# Assays:
# [1] = Stability of Tc-99m labeled compound, labeling purity by HPLC; format: physicochemical; details: for radiochemical purity: cysteine and VB1, until 4 hours (Table 5)
# Description: 2 mL of Tc-99m was added dropwise to a lyophilized vial including 0.1 mg of GP-104, 15 μg of SnCl2, and 10 μg of cysteine, the vial was allowed to stand at room temperature for 10 minutes, and the reaction was terminated by adjusting pH to 7 using a NaOH solution. Labeling purity was confirmed to be 93.21% by HPLC (analysis conditions: Luna C18 250×4.6 mm, phosphate buffer:acetonitrile (100:0, 0 to 5 minutes; 80:20, 5 to 10 minutes; 80:20, 17 minutes; 100:0, 17.1 minutes). 100:0. 20 min), 1.0 mL/min, UV=280 nm).
# In order to confirm the effect of cysteine addition after the reaction, the following experiment was performed: 0.1 mg of GP-104 was dissolved in water for injection, the pH was adjusted to about 3.5 when 10 μL of SnCl2 (1.5 mg/mL) and 2 mL of Tc-99m were added thereto, and the resulting mixture was allowed to stand at room temperature for 10 minutes. The reaction was terminated by adjusting the pH to 7 using a NaOH solution and 10 μL of cysteine (1.0 mg/mL). Labeling purity was confirmed to be 91.4% using HPLC in the same manner as in Example 2-7.
# After 0.1 mg of GP-104 was dissolved in water for injection, pH was adjusted to about 3.5 and the resulting solution was allowed to stand at room temperature for 10 minutes when 10 μL of SnCl2 (1.5 mg/mL), 10 μL of cysteine (1.0 mg/mL) and 2 mL of Tc-99m were added thereto, and the reaction was terminated by adjusting the pH to 7 using a NaOH solution. Labeling purity was confirmed to be 94.84% using HPLC in the same manner as in Example 2-7.
# HCl and NaOH was additionally added dropwise to the solution of Example 2-8 to perform a stability evaluation by adjusting the final pH of the solution to acidic (pH 5.5) and basic (pH 8.5) conditions, and labeling purity was confirmed using HPLC in the same manner as in Example 2-7.
# HCl and NaOH was additionally added dropwise to the solution of Example 2-9 to perform a stability evaluation by adjusting the final pH of the solution to acidic (pH 5.5) and basic (pH 8.5) conditions, and labeling purity was confirmed using HPLC in the same manner as in Example 2-7.
# HCl and NaOH was additionally added dropwise to the solution of Example 2-10 to perform a stability evaluation by adjusting the final pH of the solution to acidic (pH 5.5) and basic (pH 8.5) conditions, and labeling purity was confirmed using HPLC in the same manner as in Example 2-7.
# 0.1 mg of GP-105 was dissolved in water for injection, the pH was adjusted to about 3.5 when 10 μL of SnCl2 (1.5 mg/mL) and 2 mL of Tc-99m were added thereto, and the resulting mixture was allowed to stand at room temperature for 10 minutes. The reaction was terminated by adjusting the pH to 7 using a NaOH solution and 10 μL of cysteine (1.0 mg/mL). Labeling purity was confirmed to be 98.1% using HPLC in the same manner as in Example 2-7.
# HCl and NaOH was additionally added dropwise to the solution of Example 2-12 to perform a stability evaluation by adjusting the final pH of the solution to acidic (pH 5.5) and basic (pH 8.5) conditions, and labeling purity was confirmed using HPLC in the same manner as in Example 2-7.
# HCl and NaOH was additionally added dropwise to the solution of Example 2-13 to perform a stability evaluation by adjusting the final pH of the solution to acidic (pH 5.5) and basic (pH 8.5) conditions, and labeling purity was confirmed using HPLC in the same manner as in Example 2-7.
# HCl and NaOH was additionally added dropwise to the solution of Example 2-14 to perform a stability evaluation by adjusting the final pH of the solution to acidic (pH 5.5) and basic (pH 8.5) conditions, and labeling purity was confirmed using HPLC in the same manner as in Example 2-7.
# [2] = as above; format: physicochemical; details: Ex 3-3
smiles,measurement,setting,value
O=C(O)C[C@H](NC(=O)[C@@H]1CCCN(C(=O)CCC2CCNCC2)C1)c1cncc(OCCNC(=O)CN2CCN3CCN(CC(=O)O)CC(=O)[O][99Tc+]([O]C(=O)C3)[O]C(=O)C2)c1 [[Tc-99m]GP-104],Purity,"[1]; 165 nmol cysteine, acidic conditions, after 2 hours (Table 4)",≤ 90%
same,Purity,"[1]; 165 nmol cysteine, basic conditions, until 2 hours (Table 4)",< 90%
same,Purity,"[1]; 165 nmol cysteine, neutral conditions, even after 4 hours (Table 4)",≥ 90%
same,purity (HPLC),"[1]; Ex 3-3, addition of cysteine after reaction, pH 3, 0 hour",82.63%
same,purity (HPLC),"[1]; Ex 3-3, addition of cysteine after reaction, pH 3, 1 hour",70.01%
same,purity (HPLC),"[1]; Ex 3-3, addition of cysteine after reaction, pH 3, 2 hours",52.58%
same,purity (HPLC),"[1]; Ex 3-3, addition of cysteine after reaction, pH 3, 4 hours",30.38%
same,purity (HPLC),"[1]; Ex 3-3, addition of cysteine after reaction, pH 7, 0 hour",91.4%
same,purity (HPLC),"[1]; Ex 3-3, addition of cysteine after reaction, pH 7, 1 hour",91.42%
same,purity (HPLC),"[1]; Ex 3-3, addition of cysteine after reaction, pH 7, 2 hours",91.1%
same,purity (HPLC),"[1]; Ex 3-3, addition of cysteine after reaction, pH 7, 3 hours",90.3%
same,purity (HPLC),"[1]; Ex 3-3, addition of cysteine after reaction, pH 7, 4 hours",90.19%
same,purity (HPLC),"[1]; Ex 3-3, addition of cysteine before reaction, pH 3, 1 hour",92.7%
same,purity (HPLC),"[1]; Ex 3-3, addition of cysteine before reaction, pH 3, 2 hours",84.17%
same,purity (HPLC),"[1]; Ex 3-3, addition of cysteine before reaction, pH 3, 3 hours",76.77%
same,purity (HPLC),"[1]; Ex 3-3, addition of cysteine before reaction, pH 3, 4 hours",69.34%
same,purity (HPLC),"[1]; Ex 3-3, addition of cysteine before reaction, pH 7, 0 hour",94.84%
same,purity (HPLC),"[1]; Ex 3-3, addition of cysteine before reaction, pH 7, 1 hour",94.43%
same,purity (HPLC),"[1]; Ex 3-3, addition of cysteine before reaction, pH 7, 2 hours",97.66%
same,purity (HPLC),"[1]; Ex 3-3, addition of cysteine before reaction, pH 7, 4 hours",97.75%
same,radiochemical purity,[1]; acidic conditions,≥ 90%
same,radiochemical purity,[1]; basic conditions,≥ 80%
same,radiochemical purity,[1]; pH of 7,≥ 98%
same,Purity,"[1]; pH of 7 regardless of the timing of cysteine addition, even after 4 hours (text to Table 3)",≥ 90%
same,purity (HPLC),"[1]; solution of Example 2-8 (165 nmol cysteine), pH 5.5, 0 hr",95.26%
same,purity (HPLC),"[1]; solution of Example 2-8 (165 nmol cysteine), pH 5.5, 2 hr",91.45%
same,purity (HPLC),"[1]; solution of Example 2-8 (165 nmol cysteine), pH 5.5, 4 hr",89.28%
same,purity (HPLC),"[1]; solution of Example 2-8 (165 nmol cysteine), pH 7, 0 hr",95.26%
same,purity (HPLC),"[1]; solution of Example 2-8 (165 nmol cysteine), pH 7, 2 hr",91.19%
same,purity (HPLC),"[1]; solution of Example 2-8 (165 nmol cysteine), pH 7, 4 hr",91.61%
same,purity (HPLC),"[1]; solution of Example 2-8 (165 nmol cysteine), pH 8.5, 0 hr",95.26%
same,purity (HPLC),"[1]; solution of Example 2-8 (165 nmol cysteine), pH 8.5, 2 hr",79.83%
same,purity (HPLC),"[1]; solution of Example 2-8 (165 nmol cysteine), pH 8.5, 4 hr",51.77%
same,radiochemical purity (HPLC),"[1]; solution of Example 2-9 (82.5 nmol cysteine + 82.5 nmol VB1), pH 5.5, 0 hr",100%
same,radiochemical purity (HPLC),"[1]; solution of Example 2-9 (82.5 nmol cysteine + 82.5 nmol VB1), pH 5.5, 2 hr",92.72%
same,radiochemical purity (HPLC),"[1]; solution of Example 2-9 (82.5 nmol cysteine + 82.5 nmol VB1), pH 5.5, 4 hr",91.20%
same,radiochemical purity (HPLC),"[1]; solution of Example 2-9 (82.5 nmol cysteine + 82.5 nmol VB1), pH 7, 0 hr",100%
same,radiochemical purity (HPLC),"[1]; solution of Example 2-9 (82.5 nmol cysteine + 82.5 nmol VB1), pH 7, 2 hr",98.63%
same,radiochemical purity (HPLC),"[1]; solution of Example 2-9 (82.5 nmol cysteine + 82.5 nmol VB1), pH 7, 4 hr",98.18%
same,radiochemical purity (HPLC),"[1]; solution of Example 2-9 (82.5 nmol cysteine + 82.5 nmol VB1), pH 8.5, 0 hr",100%
same,radiochemical purity (HPLC),"[1]; solution of Example 2-9 (82.5 nmol cysteine + 82.5 nmol VB1), pH 8.5, 2 hr",83.08%
same,radiochemical purity (HPLC),"[1]; solution of Example 2-9 (82.5 nmol cysteine + 82.5 nmol VB1), pH 8.5, 4 hr",80.97%
same,radiochemical purity (HPLC),"[1]; solution of Example 2-10 (82.5 nmol cysteine + 82.5 nmol VB6), pH 5.5, 0 hr",97.24%
same,radiochemical purity (HPLC),"[1]; solution of Example 2-10 (82.5 nmol cysteine + 82.5 nmol VB6), pH 5.5, 2 hr",90.29%
same,radiochemical purity (HPLC),"[1]; solution of Example 2-10 (82.5 nmol cysteine + 82.5 nmol VB6), pH 5.5, 4 hr",90.65%
same,radiochemical purity (HPLC),"[1]; solution of Example 2-10 (82.5 nmol cysteine + 82.5 nmol VB6), pH 7, 0 hr",97.24%
same,radiochemical purity (HPLC),"[1]; solution of Example 2-10 (82.5 nmol cysteine + 82.5 nmol VB6), pH 7, 2 hr",95.61%
same,radiochemical purity (HPLC),"[1]; solution of Example 2-10 (82.5 nmol cysteine + 82.5 nmol VB6), pH 7, 4 hr",96.25%
same,radiochemical purity (HPLC),"[1]; solution of Example 2-10 (82.5 nmol cysteine + 82.5 nmol VB6), pH 8.5, 0 hr",97.24%
same,radiochemical purity (HPLC),"[1]; solution of Example 2-10 (82.5 nmol cysteine + 82.5 nmol VB6), pH 8.5, 2 hr",95.61%
same,radiochemical purity (HPLC),"[1]; solution of Example 2-10 (82.5 nmol cysteine + 82.5 nmol VB6), pH 8.5, 4 hr",91.19%
same,radiochemical purity (HPLC),"[1]; solution of Example 2-14 (82.5 nmol cysteine + 82.5 nmol VB6), pH 5.5, 0 hr",100%
same,radiochemical purity (HPLC),"[1]; solution of Example 2-14 (82.5 nmol cysteine + 82.5 nmol VB6), pH 5.5, 2 hr",97.24%
same,radiochemical purity (HPLC),"[1]; solution of Example 2-14 (82.5 nmol cysteine + 82.5 nmol VB6), pH 5.5, 4 hr",95.61%
same,radiochemical purity (HPLC),"[1]; solution of Example 2-14 (82.5 nmol cysteine + 82.5 nmol VB6), pH 7, 0 hr",100%
same,radiochemical purity (HPLC),"[1]; solution of Example 2-14 (82.5 nmol cysteine + 82.5 nmol VB6), pH 7, 2 hr",98.56%
same,radiochemical purity (HPLC),"[1]; solution of Example 2-14 (82.5 nmol cysteine + 82.5 nmol VB6), pH 7, 4 hr",98.2%
same,radiochemical purity (HPLC),"[1]; solution of Example 2-14 (82.5 nmol cysteine + 82.5 nmol VB6), pH 8.5, 0 hr",100%
same,radiochemical purity (HPLC),"[1]; solution of Example 2-14 (82.5 nmol cysteine + 82.5 nmol VB6), pH 8.5, 2 hr",92.21%
same,radiochemical purity (HPLC),"[1]; solution of Example 2-14 (82.5 nmol cysteine + 82.5 nmol VB6), pH 8.5, 4 hr",89.62%
same,purity (HPLC),"[2]; addition of cysteine after reaction, pH 3, 3 hours",42.46%
same,purity (HPLC),"[2]; addition of cysteine before reaction, pH 3, 0 hour",95.6%
same,purity (HPLC),"[2]; addition of cysteine before reaction, pH 7, 3 hours",98.53%
